The values that follow come from patent US8987257B2 (Novartis AG, priority 2011, dated 2015).

In general, IC50 refers to the midpoint of a concentration-inhibition curve. What is called EC50 is the midpoint of the concentration-response curve. Low values mean higher potency in that assay, high ones lower potency in that assay.

Assay [1] deals with PI3Kα (Homo sapiens (Human), UniProt P42336). In words: Test 1: PI3 Kinase Assay (PI3K KinaseGlo assay). It counts as biochemical. The note with it: 1 μM ATP. Background: Kinase-Glo measures the ATP left after a reaction by luminescence.
Method: L-a-phosphatidylinositol (PI), provided as 10 mg/ml solution in methanol, was transferred into a glass tube and dried under nitrogen beam. It was then resuspended in 3% OctylGlucoside (OG) by vortexing and stored at 4° C. The KinaseGlo Luminescent Kinase Assay (Promega, Madison/WI, USA) is a homogeneous HTS method of measuring kinase activity by quantifying the amount of ATP remaining in solution following a kinase reaction.
Kinase reactions were started by addition of 5 μl of ATP-mix containing in a final volume 10 μL 10 mM TRIS-HCl pH 7.5, 3 mM MgCl2, 50 mM NaCl, 0.05% CHAPS, 1 mM DTT and 1 μM ATP, and occurred at room temperature.
The PI3Kα construct is a fusion of p85α iSH2 domain and the respective p110 isoform. The p85α fragment and p110 isoform gene were generated by PCR from first strand cDNA generated by RT-PCR from commercial RNA from placenta, testis and brain as described below.
The p85 fragment was derived from plasmid p1661-2 digested with Nhe/Spe. The p110α fragment derived from its clone was verified by sequencing and used in LR410 as a SpeI/HindIII fragment. For the generation of the baculovirus expression vector LR410 the gateway LR reaction to transfer the insert into the Gateway adapted pBlueBac4.5 (Invitrogen) vector was used. The cloning vector pBlueBac4.5 (Invitrogen) was digested with Nhe/HindIII. […] The two reverse primers overlap and incorporate a 12×Gly linker and the N-terminal sequence of the p110α gene to the SpeI site. The PCR fragment was cloned into pCR2.1 TOPO (Invitrogen). Of the resulting clones, p1661-2 was determined to be correct by sequencing. This plasmid was digested with Nhe and SpeI and the resulting fragment was gel-isolated and purified for sub-cloning.
PI3Kα was purified in two chromatographic steps: immobilized metal affinity chromatography (IMAC) on a Ni sepharose resin (GE Healthcare) and gel filtration utilizing a Superdex 200 26/60 column (GE Healthcare). All buffers were chilled to 4° C. and lysis was performed chilled on ice. Column fractionation was performed at room temperature.
Assay [2] concerns constitutively active mTOR. In words: Test 3: TSC Assay (high content imaging of phospho-S6 (240/244) in TSC1−/− MEFs). It counts as cell-based. Conditions: Mus musculus, pS6 240/244 staining, 2 hrs compound treatment.
Method: This assay generates IC50 values for compounds that inhibit mTOR.
Quantification of pS6 Staining Using High-Content Imaging and Analysis
Day 0: Cell plating. Subconfluent TSC1−/− MEFs are harvested by trypsinization, resuspended in growth medium, and counted. […] The plates are briefly spun down and placed at 37° C. and 5% CO2. • 2. Day 1: Cell plates are washed into a PBS starve solution (contains glucose, sodium bicarbonate, HEPES and phenol red) using a 384-well plate washer. The wash protocol aspirates the volume down to 30 μL/well before dispensing 60 μL/well of the PBS starve solution. Aspiration and dispensing steps are repeated 8 times and a final volume of 30 μL/well is left. The cell plates are placed at 37° C. and 5% CO2 for 2 hrs. • Compound treatment. Compound dose responses are prepared in DMSO. The dose responses are then diluted 1:50 in medium. 10 ul of the diluted compound is added to 30 ul of cells, yielding a final 1:200 dilution of the original compound and final of 0.5% DMSO. Compound-treatments are performed in triplicates. The plates are placed at 37° C. and 5% CO2 for 2 hrs. Cells are then fixed by adding 10 μL/well 5× concentrated Mirsky's fixative. […] The cell plates are briefly spun down and incubated for 1 h at room temperature. Cells are then washed using a 384-well plate washer using a protocol which aspirates the volume down to 30 μL/well before dispensing 60 μL/well 1×TBS. Aspiration and dispensing steps are repeated 8 times and then an additional aspiration step leaves a final volume of 10 μL/well. Block buffer (1×TBS+0.1% Triton X-100+0.1% BSA) is then added at 25 μL/well and the plates are incubated at room temperature for 30 min. The cell plates are then aspirated down to 10 μL/well. […] Plates are incubated overnight at 4° C. • 3. […] The bottom of the plate is cleaned with 70% ethanol and then imaged using the InCell 1000 automated epifluorescence microscope. […] Cy5 images are acquired using an excitation of 620 nm (Chroma 620—60× filter), an emission of 700 nm (Chroma HQ700—75M filter) and an exposure time of 200 ms. A double band pass mirror is used for all images. • 4. Image analysis: The InCell Analysis software is used to analyze the images using the Dual Object algorithm. […] The Cy5 fluorescence intensity inside the collar is measured (cell intensity) and results are reported on an “Average per cell” basis. • 5. IC50 calculation: IC50s are calculated by plotting the cell intensity values on the y-axis with dose response values on the x-axis. IC50 values represent compound potency against mTOR.
Assay [3] has as its system H4 mCherry-GFP-LC3 cells. The assay is described as follows: Test 4: Autophagy Assay (mCherry-GFP-LC3 reporter, high-content imaging). It counts as cell-based. The note with it: Homo sapiens, Table 1, mCherry-positive LC3 puncta/cell, 16-18 h. The source says: Autophagy is a catabolic pathway that degrades bulk cytosol in lysosomal compartments enabling amino acids and fatty acids to be recycled. […] To quantify autophagy induction by mTOR inhibitors, we use a mCherry-GFP-LC3 reporter which is amenable to retroviral delivery into mammalian cells, stable expression and analysis by fluorescence microscopy.
Described hereinafter is an imaging protocol and image recognition algorithm to visualize and measure changes in the autophagic pathway.
Quantification of Autophagy Using High-Content Imaging and Analysis
• 1. Day 0: Cell plating. Subconfluent H4 mCherry-GFP-LC3 cells are harvested by trypsinization, resuspended in growth medium, and counted (H4 cells: Human neuroglioma cell line (ATCC)). A cell suspension of 66′000 cells/mL is prepared and 30 μL are added into the wells of a 384-well plate using an electronic multichannel pipette. […] The cell plates are briefly spun down and placed at 37° C. and 5% CO2. • 2. Day 1: Compound treatment. Compound dose responses are prepared in DMSO. The dose responses are then diluted 1:50 in medium. 10 ul of the diluted compound is added to 30 ul of cells, yielding a final 1:200 dilution of the original compound and final of 0.5% DMSO. Compound-treatments are performed in triplicates. The 384-well plates are placed at 37° C. and 5% CO2. Compound treatment is performed for 16-18 h (see Note 1). • 3. Day 2: Cell fixation. Cells are fixed by adding 10 μL/well 5× concentrated Mirsky's fixative supplemented with 25 μg/mL Hoechst33342. […] The 384-well plate is briefly spun down and incubated for 1 h at room temperature. Cells are then washed using a 384-well plate washer using a protocol which aspirates the volume down to 10 μL/well before dispensing 100 μL/well 1×TBS. Aspiration and dispensing steps are repeated 4 times and a final volume of 100 μL/well is left. The plate is sealed using an adhesive PCR foil. • 4. Imaging. The bottom of the plate is cleaned with 70% ethanol and then imaged using the InCell 1000 automated epifluorescence microscope. 20× magnification is used and 4 different areas (fields) are imaged per well, this typically captures a total of around 400 cells per well. Hoechst33342 images are acquired using an excitation of 360 nm (D360—40× filter), an emission of 460 nm (HQ460—40M filter) and an exposure time of 150 ms. GFP images are acquired using an excitation of 475 nm (S47520× filter), an emission of 535 nm (HQ535—50M filter) and an exposure time of 1 s. mCherry images are acquired using an excitation of 535 nm (HQ535—50× filter), an emission of 620 nm (HQ620—60M filter) and an exposure time of 1 s. A quadruple band pass mirror is used for all images. • 5. Image analysis. The InCell Analysis software is used to analyze the images using the Multi Target Analysis algorithm. First, nuclei are detected in the Hoechst33342 image using top-hat segmentation and a minimal nuclear area of 50 μm^2. Cells are defined using a collar of 10 μm around the nuclei. Second, puncta (organelles) are identified in the mCherry image inside the cells using multi-top-hat segmentation. Third, the mask of the mCherry puncta is transferred onto the GFP image. Fourth, the GFP fluorescence intensity inside the mCherry puncta mask is measured (reference intensity). • 6. The ‘organelles’ parameter reflects mCherry-positive puncta of the mCherry-GFP-LC3 reporter and is used to calculate ‘LC3 puncta/cell’. For this purpose, the number of organelles is calculated per cell and averaged over all the cells in a given well (average per cell basis). mCherry-positive LC3 puncta numbers (y-axis) are plotted against the compound dose response values (x-axis) and EC50 values are calculated for each compound. EC50 values represent compound potency in terms of autophagy activation (e.g. increase in mCherry-positive LC3 puncta count). Notes • 1. Autophagy-modulation and redistribution of mCherry-GFP-LC3 can be already observed after a compound treatment time of 3-4 h. […]

Assay [4] has as its target FRAP1/mTOR (Homo sapiens (Human), UniProt P42345). The assay is described as follows: Test 2: mTOR Biochemical Assay (FRAP1/mTOR TR-FRET tracer assay). Conditions: mTOR Kinase Tracer 314. Format: binding. A general note: TR-FRET usually uses a lanthanide donor and a delayed reading to cut background.
Method: IC50s for mTOR interacting compounds were assessed using the FRAP1/mTOR TR-FRET tracer assay (Invitrogen by Life Technologies). […] Compounds were serially diluted in DMSO (12-point, 4× dilution factor) and 1 μL of diluted compound was then added to each well and mixed by pipetting using a Biomek FX (Beckman Coulter).

PI3Kα, sequence (P42336 other isoform, or with tags, fused parts or gaps): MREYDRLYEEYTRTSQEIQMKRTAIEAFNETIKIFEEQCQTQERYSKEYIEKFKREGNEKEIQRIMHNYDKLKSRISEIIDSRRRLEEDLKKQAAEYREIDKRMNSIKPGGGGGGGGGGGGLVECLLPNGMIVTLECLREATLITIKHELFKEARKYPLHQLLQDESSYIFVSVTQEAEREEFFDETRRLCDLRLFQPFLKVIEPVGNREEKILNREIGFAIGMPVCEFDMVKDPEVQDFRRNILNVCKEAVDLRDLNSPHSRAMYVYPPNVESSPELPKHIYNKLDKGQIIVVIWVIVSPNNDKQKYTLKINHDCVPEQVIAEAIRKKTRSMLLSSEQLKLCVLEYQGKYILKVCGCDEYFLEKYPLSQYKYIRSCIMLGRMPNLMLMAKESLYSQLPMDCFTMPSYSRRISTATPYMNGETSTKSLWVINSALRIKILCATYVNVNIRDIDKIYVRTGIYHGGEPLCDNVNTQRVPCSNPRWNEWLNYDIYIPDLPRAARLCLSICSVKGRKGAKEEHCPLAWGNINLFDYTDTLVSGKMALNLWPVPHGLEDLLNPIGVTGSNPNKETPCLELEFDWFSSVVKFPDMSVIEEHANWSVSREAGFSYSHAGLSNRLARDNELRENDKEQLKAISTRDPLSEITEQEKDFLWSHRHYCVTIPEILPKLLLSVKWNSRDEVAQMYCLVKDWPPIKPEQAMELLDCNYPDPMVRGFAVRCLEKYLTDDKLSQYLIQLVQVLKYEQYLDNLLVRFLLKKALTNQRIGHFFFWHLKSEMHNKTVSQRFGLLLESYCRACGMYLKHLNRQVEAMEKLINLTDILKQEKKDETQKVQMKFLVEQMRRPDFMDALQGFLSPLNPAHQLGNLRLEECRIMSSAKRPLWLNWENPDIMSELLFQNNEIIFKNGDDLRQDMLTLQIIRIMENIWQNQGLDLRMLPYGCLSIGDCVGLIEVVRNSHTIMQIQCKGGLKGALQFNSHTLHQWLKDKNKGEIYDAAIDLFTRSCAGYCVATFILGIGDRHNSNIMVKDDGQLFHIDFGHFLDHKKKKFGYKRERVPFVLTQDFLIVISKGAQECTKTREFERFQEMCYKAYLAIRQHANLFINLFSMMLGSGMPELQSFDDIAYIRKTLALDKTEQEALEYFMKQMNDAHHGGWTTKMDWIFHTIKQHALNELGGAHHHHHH
FRAP1/mTOR, sequence (P42345 1360-2549): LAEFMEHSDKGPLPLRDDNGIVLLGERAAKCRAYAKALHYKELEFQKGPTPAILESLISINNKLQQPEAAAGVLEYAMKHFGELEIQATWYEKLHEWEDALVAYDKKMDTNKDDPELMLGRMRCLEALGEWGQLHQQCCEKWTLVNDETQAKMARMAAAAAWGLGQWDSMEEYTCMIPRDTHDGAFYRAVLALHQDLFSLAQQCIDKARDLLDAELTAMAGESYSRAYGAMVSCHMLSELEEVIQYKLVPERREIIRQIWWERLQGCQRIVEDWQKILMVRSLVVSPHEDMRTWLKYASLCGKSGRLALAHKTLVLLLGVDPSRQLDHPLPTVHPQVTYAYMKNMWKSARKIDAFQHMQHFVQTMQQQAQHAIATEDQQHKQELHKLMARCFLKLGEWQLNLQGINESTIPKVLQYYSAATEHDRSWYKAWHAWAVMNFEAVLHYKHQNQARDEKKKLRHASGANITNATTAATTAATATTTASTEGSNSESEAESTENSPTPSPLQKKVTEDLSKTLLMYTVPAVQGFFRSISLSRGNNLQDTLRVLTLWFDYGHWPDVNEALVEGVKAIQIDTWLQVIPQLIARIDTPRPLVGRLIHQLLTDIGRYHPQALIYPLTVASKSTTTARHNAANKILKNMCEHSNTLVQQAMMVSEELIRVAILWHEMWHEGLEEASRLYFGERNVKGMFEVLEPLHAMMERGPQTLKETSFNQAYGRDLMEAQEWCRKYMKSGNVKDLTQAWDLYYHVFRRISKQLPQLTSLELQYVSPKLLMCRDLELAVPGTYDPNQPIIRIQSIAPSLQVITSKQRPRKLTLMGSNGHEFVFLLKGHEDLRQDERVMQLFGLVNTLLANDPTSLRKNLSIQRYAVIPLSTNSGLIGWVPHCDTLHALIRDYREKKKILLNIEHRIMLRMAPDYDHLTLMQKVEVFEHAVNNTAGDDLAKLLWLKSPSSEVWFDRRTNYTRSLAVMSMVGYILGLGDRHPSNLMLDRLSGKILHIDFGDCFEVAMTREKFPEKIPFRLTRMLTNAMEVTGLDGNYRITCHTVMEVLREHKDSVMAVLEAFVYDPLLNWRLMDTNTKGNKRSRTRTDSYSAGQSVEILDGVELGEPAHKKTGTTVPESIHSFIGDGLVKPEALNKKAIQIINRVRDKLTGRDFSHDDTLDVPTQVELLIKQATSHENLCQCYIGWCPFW

`C[C@@H]1CN(c2nc(N3CCOCC3)c3nc(-c4cccc(O)c4)[nH]c3n2)C[C@H](C)O1` [Example 1, 3-[2-((2S,6R)-2,6-Dimethyl-morpholin-4-yl)-6-morpholin-4-yl-9H-purin-8-yl]-phenol]: the IC50 in assay [1] was found to be 0.02 µM; in assay [2], 0.118 µM.
`Oc1cccc(-c2cc3c(N4CCOCC4)nc(N4CCOCC4)nc3[nH]2)c1` [Example 2, 3-(2,4-Di-morpholin-4-yl-7H-pyrrolo[2,3-d]pyrimidin-6-yl)-phenol] came in with a half-maximal effective concentration (EC50) in assay [3] of 0.363 µM. For the same compound, the IC50 in assay [1] worked out at 1.06 µM; in assay [4], 0.04 µM; in assay [2], 0.3 µM.
In the same order, the values of `C[C@H]1COCCN1c1nc(N2CCOC[C@@H]2C)c2nc(-c3ccnc4[nH]ccc34)[nH]c2n1` [Example 3, 2,6-Bis-((S)-3-methyl-morpholin-4-yl)-8-(1H-pyrrolo[2,3-b]pyridin-4-yl)-9H-purine] are over 2 µM, 6.53 µM, 0.51 µM and 2.32 µM.
In the same order, the values of `C[C@H]1COCCN1c1nc(N2CCOCC2)nc2[nH]c(-c3ccc(F)c(CO)c3)nc12` [Example 4, {2-Fluoro-5-[6-((S)-3-methyl-morpholin-4-yl)-2-morpholin-4-yl-9H-purin-8-yl]-phenyl}-methanol] are 1.55 µM, 1.8 µM, 1.42 µM and 1.86 µM.
On the same counts, the results for `C[C@H]1COCCN1c1nc(N2CCC(F)(F)CC2)nc2[nH]c(-c3cccc4[nH]ccc34)nc12` [Example 5, 2-(4,4-Difluoro-piperidin-1-yl)-8-(1H-indol-4-yl)-6-((S)-3-methyl-morpholin-4-yl)-9H-purine] are 2.59 µM, over 9.1 µM, 0.15 µM and 0.551 µM.
For `C[C@H]1COCCN1c1nc(N2CCOC[C@@H]2C)c2nc(-c3ccc4[nH]c(=O)[nH]c4c3)[nH]c2n1` [Example 6, 5-[2,6-Bis-((S)-3-methyl-morpholin-4-yl)-9H-purin-8-yl]-1,3-dihydro-benzoimidazol-2-one], the IC50 is over 9.1 µM in assay [1], 0.03 µM in assay [4] and 1.45 µM in assay [2].
For the compound `COc1ccc(-c2nc3c(N4CCOC[C@@H]4C)nc(N4CCOC[C@@H]4C)nc3[nH]2)cc1CO` [Example 7, {5-[2,6-Bis-((S)-3-methyl-morpholin-4-yl)-9H-purin-8-yl]-2-methoxy-phenyl}-methanol], the IC50 was found to be 2.54 µM in assay [1] and 0.455 µM in assay [2].
For the compound `c1cc(-c2nc3c(N4CC5CCC(C4)O5)nc(N4CCOCC4)nc3[nH]2)c2cc[nH]c2c1` [Example 8, 8-(1H-Indol-4-yl)-2-morpholin-4-yl-6-(8-oxa-3-aza-bicyclo[3.2.1]oct-3-yl)-9H-purine], in assay [3], the EC50 worked out at 0.731 µM. Moreover, the 50% inhibitory concentration (IC50) in assay [1] was over 9.1 µM; in assay [4], 0.041 µM; in assay [2], 0.127 µM.
In the same order, the values of `COc1ccc(-c2nc3c(N4CCOC[C@@H]4C)nc(N4CCOCC4)nc3[nH]2)cc1C(=O)O` [Example 9, 2-Methoxy-5-[6-((S)-3-methyl-morpholin-4-yl)-2-morpholin-4-yl-9H-purin-8-yl]-benzoic acid] are over 10 µM, over 9.1 µM, 3.2 µM and 7.3 µM.
On the same counts, the results for `C[C@H]1COCCN1c1nc(N2CCOCC2)nc2[nH]c(-c3cc(CO)ccc3Cl)nc12` [Example 10, {4-Chloro-3-[6-((S)-3-methyl-morpholin-4-yl)-2-morpholin-4-yl-9H-purin-8-yl]-phenyl}-methanol] are over 10 µM, 0.72 µM, 1.84 µM and 5.72 µM.
In assay [3], `NCc1cccc(-c2nc3c(N4CCOCC4)nc(N4CCOCC4)nc3[nH]2)c1` [Example 11, 3-(2,6-Di-morpholin-4-yl-9H-purin-8-yl)-benzylamine] gave an EC50 of over 2 µM. For the same compound, the IC50 in assay [1] is 8.14 µM; in assay [4], 2.42 µM; in assay [2] it was 6.02 µM.
In the same order, the values of `CC(O)c1cccc(-c2nc3c(N4CCOC[C@@H]4C)nc(N4CCOCC4)nc3[nH]2)c1` (stereo partly drawn) [Example 12, 1-{3-[6-((S)-3-Methyl-morpholin-4-yl)-2-morpholin-4-yl-9H-purin-8-yl]-phenyl}-ethanol] are over 10 µM, 2.87 µM, 2.02 µM and 1.96 µM.
In the same order, the values of `c1cc2ncc(-c3nc4c(N5CCOCC5)nc(N5CCOCC5)nc4[nH]3)cc2[nH]1` [Example 13, 2,6-Di-morpholin-4-yl-8-(1H-pyrrolo[3,2-b]pyridin-6-yl)-9H-purine] are 8.53 µM, 0.43 µM, 0.469 µM and 2.78 µM.
In the case of `C[C@H]1COCCN1c1nc(N2CCOCC2)nc2[nH]c(-c3ccc4cc[nH]c4c3)nc12` [Example 24, 8-(1H-Indol-6-yl)-6-((S)-3-methyl-morpholin-4-yl)-2-morpholin-4-yl-9H-purine], the IC50 was determined as 8.54 µM in assay [1], 0.085 µM in assay [4] and 0.632 µM in assay [2].
As to `Cc1cc2c(-c3nc4c(N5CCOCC5)nc(N5CCOCC5)nc4[nH]3)cccc2[nH]1` [Example 31, 8-(2-Methyl-1H-indol-4-yl)-2,6-di-morpholin-4-yl-9H-purine], the IC50 in assay [1] amounted to 0.59 µM; in assay [2], 0.315 µM.
On to `C[C@@H]1CN(c2nc(N3CCOCC3)c3nc(-c4cccc(N)c4)[nH]c3n2)C[C@H](C)O1` [Example 32, 3-[2-((2S,6R)-2,6-Dimethyl-morpholin-4-yl)-6-morpholin-4-yl-9H-purin-8-yl]-phenylamine], for which the IC50 was determined as 2.52 µM in assay [1], 1.04 µM in assay [4] and 1.03 µM in assay [2].
For `C[C@@H]1CN(c2nc(N3CCOCC3)c3nc(-c4ccccc4CO)[nH]c3n2)C[C@H](C)O1` [Example 34, {2-[2-((2S,6R)-2,6-Dimethyl-morpholin-4-yl)-6-morpholin-4-yl-9H-purin-8-yl]-phenyl}-methanol], the IC50 was over 9.1 µM in assay [1] and 8 µM in assay [2].
In the same order, the values of `OCc1ccccc1-c1nc2c(N3CCOCC3)nc(N3CCOCC3)nc2[nH]1` [Example 35, [2-(2,6-Di-morpholin-4-yl-9H-purin-8-yl)-phenyl]-methanol] are 5.87 µM and 4.01 µM.
In the same order, the values of `Oc1cccc(-c2nc3c(N4CCOCC4)nc(N4CCOCC4)nc3[nH]2)c1` [Example 36, 3-(2,6-Di-morpholin-4-yl-9H-purin-8-yl)-phenol] are 0.02 µM and 0.073 µM.
On the same counts, the results for `OCc1cccc(-c2nc3c(N4CCOCC4)nc(N4CCOCC4)nc3[nH]2)c1` [Example 37, [3-(2,6-Di-morpholin-4-yl-9H-purin-8-yl)-phenyl]-methanol] are 0.01 µM and 0.62 µM.
On to `Oc1ccccc1-c1nc2c(N3CCOCC3)nc(N3CCOCC3)nc2[nH]1` [Example 38, 2-(2,6-Di-morpholin-4-yl-9H-purin-8-yl)-phenol], for which the figures for the IC50 in assay [1] and in assay [2] were 0.48 µM and over 50 µM, respectively.
